Source: publication PMC9436767, “Optical control of the β2-adrenergic receptor with opto-prop-2: A cis-active azobenzene analog of propranolol” (iScience, 2022)

Assays:
[1] = UV-Vis absorbance spectra; format: physicochemical; conditions: 25 μM in HBSS buffer with 1% DMSO
Experimental: Solubility in buffer was explored for all compounds using nephelometry ([Bevan and Lloyd, 2000]) and these studies indicate good solubility of all azobenzene photoswiches up to at least 100 μM (Figure S1). […] For all compounds, 360 nm induces a large change in absorbance spectrum compared with the non-illuminated (dark) compounds (Table 1, Figure 2A, and S1), indicating photoisomerization to the cis-isomer. The absorbance peak (λmax) of Opto-prop-1-3 ranged between 319 and 347 nm for the trans-isomers and between 423 and 429 for the cis-isomers (Table 1), as is typical for azobenzene compounds ([Hauwert et al., 2018]). […] The photochemical conversions were determined by continuous illumination of the Opto-prop compounds with near UV-light (360 ± 20 nm) as 10-mM solutions in DMSO. Based on LCMS analysis, it was observed that all compounds obtained a high level of conversion to the cis-isomer with a photostationary state (PSS) of >88 area % cis-isomer (i.e. PSScis; Table 1). Subsequent back-switching to PSStrans with 434 nm maintained 22–29 area % cis-isomer (Table 1). The thermal relaxation of the PSScis state of the photoswitchable ligands was monitored over time by measuring absorbance at 254 nm. Only minor thermal relaxation to the trans-isomer could be detected at 20°C (not shown). An estimate of the relaxation rate at 20 °C was determined using a method by Priimagi et al. ([Ahmed et al., 2017]), which was performed in Hanks’ balanced salt solution (HBSS) using increased temperatures to enhance the speed of thermal relaxation. The Opto-prop ligands are all very stable as cis-isomer after illumination, with thermal relaxation half-lives of >10 days at 20 °C (See Table 1 and Figure S1).
UV-Vis spectra were obtained using a Thermo-scientific Evolution 201 PC spectrophotometer. Illumination was executed using a Sutter instruments Lambda LS with a 300 Watt full-spectrum lamp connected to a Sutter instruments Lambda 10-3 optical filter changer equipped with 360 ± 20 nm, 400 ± 5 nm, 434 ± 9 nm and 460 ± 5 nm filters. The light intensity is 0.93 mW/mm^2 using the 360 ± 20 nm filter, 0.22 mW/mm^2 using the 400 ± 5 nm filter, 0.79 mW/mm^2 for the 434 ± 9 nm filter and 0.26 mW/mm^2 for the 460 ± 5 nm filter as measured using a Thorlabs PM16-401 power meter.
For the determination of the UV-Vis spectra shown in Figure 2A, compounds (25 μM in 1% DMSO/HBSS buffer) were illuminated in Hellma Suprasil quartz 114-QS cuvettes with either a 360, 400, 434 or 460 nm filter for the indicated time. For the determination of PSScis and PSStrans states by UV spectroscopy (Figures S1D–S1F), a solution of the compound in 1% DMSO/HBSS buffer (25 μM) in a vial was illuminated to PSS cis with 360 nm (typically 4–5 min) and subsequently to PSS trans with 434 nm (typically 2–5 min). UV spectra were recorded.

β2-AR [2] = biological target: T1, β2-AR (Homo sapiens, UniProt P07550); assay: Kinetic β-arrestin2 recruitment to β2-AR with 360 nm light flashes; format: cell-based; design: expressed in transfected cells; host or cells: HEK293T, transient (PEI); conditions: 1 μM with 32 nM isoprenaline; six 5-min cycles of 360 nm flashes
Experimental: It was further explored whether the activity of the β2-AR could be modulated dynamically by treating cells with light (Figure 5). Cells that overexpress a split-nanoluc luciferase biosensor system for βarrestin2 recruitment to the β2-AR were treated with isoprenaline in the presence of Opto-prop-2. A time-dependent activation of the receptor is observed for 10 min after which cells were pulsed with light flashes of 360 nm.
Cells incubated with Opto-prop-2 are depicted in green and magenta before and after illumination, respectively. Data points represent the mean ± SEM of the three experiments, normalized to the luminescence at 10 min as 100%.
HEK293T cells were transiently transfected with 2 μg plasmid DNA per million using linear PEI at a DNA:PEI weight-ratio of 1:6. ([Zarca et al., 2021]) The used DNA plasmids were β2-AR-SmBit (0.4 μg), β-arrestin2-LgBit (0.6 μg) and pcDEF3 (non-coding DNA; 1 μg). The DNA/PEI transfection mix in 150 mM NaCL was vortexed and incubated for 15 min before adding it to a cell suspension with a final concentration of 300,000 cell/mL. Cells were then immediately plated 30,000 cells/well on a white 96-well plate (Greiner). […] After 10 min the protocol setting were switched to treat cells repeadetly with 360 nm light flashes (40 times 200 flashes over 5 min) followed after each 5 min cycle with detection of luminescence, up to a total detection time of 40 min.
Target sequence in this assay (P07550 whole entry): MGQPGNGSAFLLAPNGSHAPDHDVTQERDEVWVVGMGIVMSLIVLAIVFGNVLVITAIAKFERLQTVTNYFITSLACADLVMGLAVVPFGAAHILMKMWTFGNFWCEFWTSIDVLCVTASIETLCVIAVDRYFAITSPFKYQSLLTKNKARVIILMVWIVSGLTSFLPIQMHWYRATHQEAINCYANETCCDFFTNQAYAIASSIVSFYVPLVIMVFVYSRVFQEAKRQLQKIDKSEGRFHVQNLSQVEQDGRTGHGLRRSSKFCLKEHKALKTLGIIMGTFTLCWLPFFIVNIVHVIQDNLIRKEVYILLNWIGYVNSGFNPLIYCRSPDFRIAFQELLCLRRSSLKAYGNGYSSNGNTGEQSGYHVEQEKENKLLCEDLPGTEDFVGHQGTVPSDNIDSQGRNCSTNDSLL

[3] = Time-resolved light-induced isomerization by 1H NMR and LCMS
Description: The kinetic properties of light-induced isomer switching were further characterized using these wavelengths. Switching was monitored by ^1H NMR (Figures 2B and 2D) and LCMS (Figures 2C and 2E) analyses in tandem. The ^1H NMR signal of the ortho C-H proton adjacent to the ether function was selected as a clearly resolved signal to quantify the level of isomerization (Figure 2D).
NMR, LC and UV-Vis spectra were plotted in GraphPad Prism 8 and were visualized by fitting the data to a second order polynomial with a smooth function, using 4 neighboring data points. […] For the time-resolved isomerization experiments, integration of the peak areas was performed with Shimadzu and MestreNova software for LC and NMR integration, respectively. The normalized peak areas over time were fitted by non-linear regression in GraphPad Prism 8 using a one-phase exponential model which yields the t1/2 value of the isomerization reaction and the extrapolated PSS (i.e. the asymptote).

β2-AR [4] = biological target: T1, β2-AR; assay: Conformational β2-AR BRET sensor in HEK293A cells
Target sequence in this assay (P07550 1-369): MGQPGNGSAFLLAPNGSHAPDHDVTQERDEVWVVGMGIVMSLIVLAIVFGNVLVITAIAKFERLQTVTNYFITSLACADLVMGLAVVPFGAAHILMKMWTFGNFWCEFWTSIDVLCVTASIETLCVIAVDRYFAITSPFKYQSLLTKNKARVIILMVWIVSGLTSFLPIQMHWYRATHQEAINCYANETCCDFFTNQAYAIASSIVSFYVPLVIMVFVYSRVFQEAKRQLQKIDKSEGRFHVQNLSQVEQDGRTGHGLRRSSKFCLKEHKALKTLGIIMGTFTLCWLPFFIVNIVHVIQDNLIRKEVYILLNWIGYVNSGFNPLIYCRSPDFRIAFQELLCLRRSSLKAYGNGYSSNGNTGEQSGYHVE
Experimental: The next day, cells were washed with HBSS and incubated with a 1/1000 stock solution of furimazine. […] Wells pre-incubated with 0.1% DMSO/HBSS control were treated with vehicle control.
Raw BRET ratios were defined as acceptor emission/donor emission.
Antagonist pKB values were calculated using the agonist potency and concentration together with the antagonist IC50 values, using the Cheng-Prusoff equation.

β1-AR = β1-AR (Homo sapiens, UniProt P08588); assay: [3H]DHA radioligand displacement on membranes of HEK293T cells expressing β1-AR; conditions: for Ki: β1-AR
Chain of β1-AR (P08588 whole entry): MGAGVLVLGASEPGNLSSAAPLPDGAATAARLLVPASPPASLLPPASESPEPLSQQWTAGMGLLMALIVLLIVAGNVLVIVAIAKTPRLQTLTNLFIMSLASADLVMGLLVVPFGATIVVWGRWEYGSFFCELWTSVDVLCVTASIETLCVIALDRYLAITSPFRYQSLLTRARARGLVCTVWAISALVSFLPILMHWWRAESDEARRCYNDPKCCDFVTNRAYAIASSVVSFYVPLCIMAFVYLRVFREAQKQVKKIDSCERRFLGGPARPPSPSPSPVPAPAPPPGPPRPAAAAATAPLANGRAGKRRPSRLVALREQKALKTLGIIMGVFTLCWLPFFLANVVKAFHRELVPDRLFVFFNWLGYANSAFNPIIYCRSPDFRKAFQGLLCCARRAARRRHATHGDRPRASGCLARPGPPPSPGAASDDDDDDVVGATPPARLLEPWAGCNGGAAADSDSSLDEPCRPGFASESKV
Experimental: (§1) Membranes of HEK293T-cells transiently expressing the receptor of interest were co-incubated with the tritiated β1/β2-AR antagonist dihydroalprenolol ([^3H]DHA, Figure S2 depicts saturation binding experiments), together with increasing concentrations of the competing unlabeled ligand.
(§2) Two million HEK293T cells were seeded in a 10cm^2 dish and were transiently transfected the next day with 1 μg human β1-AR or the β2-AR plasmid DNA, 4 μg empty pcDEF3 plasmid DNA and 30 μg linear 25 kDa polyethyleneimine (PEI; Polysciences Warrington, USA) in a 150 mM NaCl solution. […] Two days after transfection, cells were resuspended and washed (3 times) with PBS and pelleted by centrifugation steps at 1500 g. After the final centrifugation step, cell pellets were reconstituted into ice-cold Tris-HCl buffer (15 mM, supplemented with 0.3 mM EDTA and 2 mM MgCl2 at pH7.4) and dounce-homogenised by plunging the pestle 10 times with 1,500 rpm (Tamson, the Netherlands). The homogenates were frozen and thawed twice using liquid nitrogen, after which the membranes were isolated using an ultra-centrifuge L70 at 40,000 g (Beckman Coulter, USA). Cell pellets were then washed and reconstituted in ice-cold 20 mM Tris-HCl buffer supplemented with 250 mM Sucrose at pH 7.4. Finally, the membrane samples where homogenized using a 23-gauge needle, snap-frozen with liquid nitrogen and stored until further experimentation at −80 °C. The protein content was determined using a BCA protein assay kit (Thermo Scientific, USA).
(§3) On the day of the experiment 0.25–0.5 μg membranes expressing either the β1-AR or the β2-AR, were co-incubated with [^3H]DHA (Perkin Elmer, USA) and increasing concentrations unlabeled ligand in HBSS buffer (Thermo Scientific, with Ca^2+ and Mg^2+) supplemented with 0.1% BSA for 1 h at 25 °C under gentile agitation. Either a 4 nM or 1 nM concentration of [^3H]DHA was used in combination with membranes expressing either the β1-AR or β2-AR, respectively. Binding reactions were terminated by filtration over a PEI coated GF/C filter (Perkin Elmer) using ice-cold 50 mM Tris-HCl buffer with 500 mM NaCl at pH 7.4. GF/C plates were dried at 52 °C and filter bound [^3H]DHA was quantified by adding 25 μL/well Microscint-O scintillation liquid and counting luminescence using the Wallac Microbeta counter, as described before.
(§4) IC50 values were determined by fitting the concentration-dependent displacement of [^3H]DHA by unlabeled ligands, with a three-parameter sigmoidal model in GraphPad Prism. […] Competition binding graphs represent the pooled data of ≥3 experiments, normalized to the fitted top and bottom of the reference sigmoidal displacement curve of unlabeled DHA.

β2-AR [5] = biological target: T1, β2-AR; assay: [3H]DHA radioligand displacement on membranes of HEK293T cells expressing β2-AR; conditions: for Ki: β2-AR
Target sequence in this assay (P07550 whole entry): as the sequence (P07550 whole entry) above
Experimental: as §1, §2, §3, §4

β2-AR [6] = biological target: T1, β2-AR; assay: NanoBiT complementation: β-arrestin2 recruitment to β2-AR, Schild analysis
Target sequence in this assay (P07550 whole entry): as above
Experimental: (§5) Mixed stable populations of HEK-β2AR-β-arrestin2, or HEK-β2AR-mGs cells were generated by selection in G418 (0.8 mg^−1) and zeocin (200 μg mL^−1) for 7–10 days, in DMEM, supplemented with 10% fetal bovine serum (FBS; Sigma Aldrich).
(§6) The antagonist affinity (KD) was then estimated by a Schild plot of log [CR-1] against log [B] (the antagonist concentration) using the relationship: Log[CR−1]=Log[B]−LogKD.

β2-AR [7] = biological target: T1, β2-AR; assay: NanoBiT complementation: mini-Gαs recruitment to β2-AR, Schild analysis
Target sequence in this assay (P07550 whole entry): as above
Experimental: as §5, §6

[8] = fold difference between Ki of trans and Ki at PSScis
[9] = isomer state with higher affinity
[10] = pKi PSScis, illuminated to PSScis (360 nm) before experiment
[11] = pKi trans, without prior illumination (trans-isomer)
[12] = at PSScis, agonist isoprenaline

CC(C)NCC(O)COc1cccc(N=Nc2ccccc2)c1 (stereo not shown) [Opto-prop-2]
λmax cis ([1]; cis-isomer): 424 nm
λmax trans ([1]; trans-isomer): 319 nm
β2-AR activity (β-arrestin2 recruitment) after 360 nm light flashes (β2-AR [2]): a drop in β2-AR activity is observed
isomerization half-life, 360 nm ([3]; 1H NMR, 10 mM in DMSO-d6): 4 min
isomerization half-life, 434 nm ([3]; 1H NMR, 10 mM in DMSO-d6): 3 min
cis-isomer at PSScis ([3]; 1H NMR, 360 nm, 10 mM in DMSO-d6): 86 mol%
cis-isomer at PSStrans ([3]; 1H NMR, 434 nm, 10 mM in DMSO-d6): 20 mol%
fitted cis-isomer at PSScis ([3]; LCMS, 360 nm): 94%
isomerization half-life to PSScis ([3]; LCMS, 360 nm): 4 min
fitted cis-isomer at PSStrans ([3]; LCMS, 434 nm): 23%
isomerization half-life to PSStrans ([3]; LCMS, 434 nm): 3 min
IC50 (β2-AR [4]): 31.6 nM
Kb (β2-AR [4]): 2 nM
fold Ki trans vs PSScis at β1-AR (β1-AR; [8]): 21 fold
Active state at β1-AR (β1-AR; [9]): cis
Ki (β1-AR; [10]): 200 nM
Ki (β1-AR; [11]): 5010 nM
difference in binding affinity β2-AR vs β1-AR (β2-AR [5]; cis-isomer): 1.9 log unit
selectivity in binding β2-AR over β1-AR (β2-AR [5]; cis-isomer (PSScis)): 78 fold
fold Ki trans vs PSScis at β2-AR (β2-AR [5]; [8]): 587 fold
Active state at β2-AR (β2-AR [5]; [9]): cis
Ki (β2-AR [5]; [10]): 2.51 nM
Ki (β2-AR [5]; pKi at PSStrans, at PSStrans (434 nm back-switching)): 31.6 nM
Ki (β2-AR [5]; [11]): 1580 nM
Kb (β2-AR [6]): 25.1 nM
slope of the Schild-plot, β-arrestin2 recruitment (β2-AR [6]; [12]): 0.9
Kb (β2-AR [7]): 25.1 nM
slope of the Schild-plot, mini-Gαs recruitment (β2-AR [7]; [12]): 1.2
